Experiments:
Experiment in all cases: biochemical
Type in all cases: biochemical
382 unique human kinases [1] = target: T1, 382 unique human kinases (Homo sapiens, UniProt P43403, Y319F); settings: ZAP70 (Y319F), 10 uM; for remaining activity at 10 µM: read-out: % Enzyme Activity (relative to DMSO controls)
T1 construct: purchased Reaction Biology (HotSpot contract assay)
T1 sequence (P43403 1-619 Y319F): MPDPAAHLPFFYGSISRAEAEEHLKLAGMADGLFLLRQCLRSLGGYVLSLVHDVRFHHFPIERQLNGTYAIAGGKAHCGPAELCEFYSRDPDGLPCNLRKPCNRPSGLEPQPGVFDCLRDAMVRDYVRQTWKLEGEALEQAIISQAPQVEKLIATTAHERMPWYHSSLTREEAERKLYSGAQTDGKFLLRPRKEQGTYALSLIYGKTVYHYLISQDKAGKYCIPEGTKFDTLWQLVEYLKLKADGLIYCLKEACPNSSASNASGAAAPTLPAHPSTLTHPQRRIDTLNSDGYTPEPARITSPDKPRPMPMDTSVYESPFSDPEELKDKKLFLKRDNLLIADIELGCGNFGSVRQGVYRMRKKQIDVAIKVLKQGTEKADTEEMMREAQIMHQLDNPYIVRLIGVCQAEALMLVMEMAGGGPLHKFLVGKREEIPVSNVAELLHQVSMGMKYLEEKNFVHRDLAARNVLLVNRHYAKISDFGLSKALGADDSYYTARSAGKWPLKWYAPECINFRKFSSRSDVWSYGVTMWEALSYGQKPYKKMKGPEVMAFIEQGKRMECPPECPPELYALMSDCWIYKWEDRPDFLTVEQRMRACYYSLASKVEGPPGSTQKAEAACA

382 unique human kinases [2] = target: T2, 382 unique human kinases (Homo sapiens, UniProt Q16832, T654M); settings: DDR2 (T654M), 10 uM; for remaining activity at 10 µM: read-out: % Enzyme Activity (relative to DMSO controls)
T2 construct: purchased Reaction Biology (HotSpot contract assay)
T2 sequence (Q16832 22-855 T654M): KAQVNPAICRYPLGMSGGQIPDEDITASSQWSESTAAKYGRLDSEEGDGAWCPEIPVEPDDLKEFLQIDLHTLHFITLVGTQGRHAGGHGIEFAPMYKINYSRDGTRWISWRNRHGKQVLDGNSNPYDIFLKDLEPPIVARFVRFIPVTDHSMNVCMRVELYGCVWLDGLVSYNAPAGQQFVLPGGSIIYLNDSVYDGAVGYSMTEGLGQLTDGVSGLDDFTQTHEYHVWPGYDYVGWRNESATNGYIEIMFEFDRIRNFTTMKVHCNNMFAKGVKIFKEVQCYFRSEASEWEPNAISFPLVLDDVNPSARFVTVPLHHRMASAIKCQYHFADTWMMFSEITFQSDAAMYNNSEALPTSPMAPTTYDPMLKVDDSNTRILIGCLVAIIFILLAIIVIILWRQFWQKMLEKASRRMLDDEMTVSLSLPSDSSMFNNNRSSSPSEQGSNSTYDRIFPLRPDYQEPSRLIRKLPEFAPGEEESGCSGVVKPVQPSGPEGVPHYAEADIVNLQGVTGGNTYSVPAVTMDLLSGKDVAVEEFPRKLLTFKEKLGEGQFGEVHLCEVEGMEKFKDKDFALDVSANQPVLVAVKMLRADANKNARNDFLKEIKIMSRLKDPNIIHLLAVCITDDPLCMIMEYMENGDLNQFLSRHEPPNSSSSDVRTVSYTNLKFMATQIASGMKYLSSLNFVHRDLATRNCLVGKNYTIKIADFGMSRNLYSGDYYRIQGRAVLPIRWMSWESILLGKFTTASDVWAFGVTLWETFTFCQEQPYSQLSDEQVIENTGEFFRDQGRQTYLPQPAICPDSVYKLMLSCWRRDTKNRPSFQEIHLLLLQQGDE

382 unique human kinases [3] = target: T3, 382 unique human kinases (Homo sapiens, UniProt Q6P5Z2); settings: kinase PKN3/PRK3, compound 10 uM; for remaining activity at 10 µM: read-out: % Enzyme Activity (relative to DMSO controls)
T3 construct: purchased Reaction Biology (HotSpot contract assay)

382 unique human kinases [4] = target: T4, 382 unique human kinases (Homo sapiens, UniProt Q02750); settings: kinase MEK1, compound 10 uM; for remaining activity at 10 µM: read-out: % Enzyme Activity (relative to DMSO controls)
T4 construct: purchased Reaction Biology (HotSpot contract assay)

382 unique human kinases [5] = target: T5, 382 unique human kinases (Homo sapiens, UniProt P08631); settings: HCK, [ATP] 30 µM
T5 construct: purchased Reaction Biology (HotSpot contract assay)

382 unique human kinases [6] = target: T6, 382 unique human kinases (Homo sapiens, UniProt O75914); settings: PAK3, 10 uM; for remaining activity at 10 µM: read-out: % Enzyme Activity (relative to DMSO controls)
T6 construct: purchased Reaction Biology (HotSpot contract assay)

382 unique human kinases [7] = target: T7, 382 unique human kinases (Homo sapiens, UniProt P06239); settings: LCK, [ATP] 15 µM
T7 construct: purchased Reaction Biology (HotSpot contract assay)

382 unique human kinases [8] = target: T8, 382 unique human kinases (Homo sapiens, UniProt P80192); settings: MLK1/MAP3K9, 10 uM; for remaining activity at 10 µM: read-out: % Enzyme Activity (relative to DMSO controls)
T8 construct: purchased Reaction Biology (HotSpot contract assay)

382 unique human kinases [9] = target: T9, 382 unique human kinases (Homo sapiens, UniProt Q96BR1); settings: SGK3/SGKL, 10 uM; for remaining activity at 10 µM: read-out: % Enzyme Activity (relative to DMSO controls)
T9 construct: purchased Reaction Biology (HotSpot contract assay)
T9 sequence (Q96BR1 1-496): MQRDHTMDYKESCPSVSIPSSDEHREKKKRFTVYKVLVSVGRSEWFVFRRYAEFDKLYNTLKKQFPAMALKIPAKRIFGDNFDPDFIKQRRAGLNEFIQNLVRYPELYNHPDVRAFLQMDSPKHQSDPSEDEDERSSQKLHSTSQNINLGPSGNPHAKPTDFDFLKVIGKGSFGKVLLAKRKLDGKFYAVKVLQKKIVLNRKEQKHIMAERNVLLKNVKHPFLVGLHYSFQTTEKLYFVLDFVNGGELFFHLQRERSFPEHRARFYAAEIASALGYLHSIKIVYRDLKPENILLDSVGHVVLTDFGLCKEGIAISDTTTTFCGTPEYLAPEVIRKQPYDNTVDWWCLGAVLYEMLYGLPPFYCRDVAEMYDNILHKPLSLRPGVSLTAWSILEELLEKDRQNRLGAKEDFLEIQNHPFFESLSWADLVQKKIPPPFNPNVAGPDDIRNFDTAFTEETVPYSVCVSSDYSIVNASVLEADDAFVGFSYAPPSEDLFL

[10] = compound 1 uM, read-out: % Enzyme Activity (relative to DMSO controls)
[11] = compound 10 uM, read-out: % Enzyme Activity (relative to DMSO controls)

T8 sequence (P80192 whole entry): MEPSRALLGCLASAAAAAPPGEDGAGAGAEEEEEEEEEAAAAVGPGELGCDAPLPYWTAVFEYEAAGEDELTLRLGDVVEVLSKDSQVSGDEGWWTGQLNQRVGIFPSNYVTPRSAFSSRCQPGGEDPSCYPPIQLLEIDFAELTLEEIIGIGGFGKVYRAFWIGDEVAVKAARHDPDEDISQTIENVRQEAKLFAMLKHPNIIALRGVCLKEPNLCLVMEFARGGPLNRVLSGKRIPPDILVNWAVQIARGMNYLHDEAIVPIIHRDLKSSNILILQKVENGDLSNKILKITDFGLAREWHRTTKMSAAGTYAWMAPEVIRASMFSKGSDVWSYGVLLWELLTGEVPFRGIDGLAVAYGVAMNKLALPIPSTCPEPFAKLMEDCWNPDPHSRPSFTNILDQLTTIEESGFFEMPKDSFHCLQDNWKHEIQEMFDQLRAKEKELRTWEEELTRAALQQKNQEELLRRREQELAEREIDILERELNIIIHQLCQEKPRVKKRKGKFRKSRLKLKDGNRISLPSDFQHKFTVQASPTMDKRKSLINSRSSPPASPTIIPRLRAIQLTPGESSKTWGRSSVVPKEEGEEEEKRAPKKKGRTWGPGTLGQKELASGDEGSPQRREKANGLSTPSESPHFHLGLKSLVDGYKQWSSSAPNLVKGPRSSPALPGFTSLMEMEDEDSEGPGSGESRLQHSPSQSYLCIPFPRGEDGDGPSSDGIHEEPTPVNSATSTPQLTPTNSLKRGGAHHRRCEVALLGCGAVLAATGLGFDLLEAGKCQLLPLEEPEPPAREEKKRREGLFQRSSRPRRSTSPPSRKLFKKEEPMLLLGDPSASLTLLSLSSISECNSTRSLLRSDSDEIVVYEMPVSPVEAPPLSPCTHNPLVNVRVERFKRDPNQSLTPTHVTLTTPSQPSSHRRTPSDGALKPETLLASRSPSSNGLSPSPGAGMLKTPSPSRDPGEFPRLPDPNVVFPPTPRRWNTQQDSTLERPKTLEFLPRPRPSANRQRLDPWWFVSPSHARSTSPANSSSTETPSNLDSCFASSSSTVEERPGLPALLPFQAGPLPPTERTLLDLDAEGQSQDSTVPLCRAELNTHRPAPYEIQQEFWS
T3 sequence (Q6P5Z2 whole entry): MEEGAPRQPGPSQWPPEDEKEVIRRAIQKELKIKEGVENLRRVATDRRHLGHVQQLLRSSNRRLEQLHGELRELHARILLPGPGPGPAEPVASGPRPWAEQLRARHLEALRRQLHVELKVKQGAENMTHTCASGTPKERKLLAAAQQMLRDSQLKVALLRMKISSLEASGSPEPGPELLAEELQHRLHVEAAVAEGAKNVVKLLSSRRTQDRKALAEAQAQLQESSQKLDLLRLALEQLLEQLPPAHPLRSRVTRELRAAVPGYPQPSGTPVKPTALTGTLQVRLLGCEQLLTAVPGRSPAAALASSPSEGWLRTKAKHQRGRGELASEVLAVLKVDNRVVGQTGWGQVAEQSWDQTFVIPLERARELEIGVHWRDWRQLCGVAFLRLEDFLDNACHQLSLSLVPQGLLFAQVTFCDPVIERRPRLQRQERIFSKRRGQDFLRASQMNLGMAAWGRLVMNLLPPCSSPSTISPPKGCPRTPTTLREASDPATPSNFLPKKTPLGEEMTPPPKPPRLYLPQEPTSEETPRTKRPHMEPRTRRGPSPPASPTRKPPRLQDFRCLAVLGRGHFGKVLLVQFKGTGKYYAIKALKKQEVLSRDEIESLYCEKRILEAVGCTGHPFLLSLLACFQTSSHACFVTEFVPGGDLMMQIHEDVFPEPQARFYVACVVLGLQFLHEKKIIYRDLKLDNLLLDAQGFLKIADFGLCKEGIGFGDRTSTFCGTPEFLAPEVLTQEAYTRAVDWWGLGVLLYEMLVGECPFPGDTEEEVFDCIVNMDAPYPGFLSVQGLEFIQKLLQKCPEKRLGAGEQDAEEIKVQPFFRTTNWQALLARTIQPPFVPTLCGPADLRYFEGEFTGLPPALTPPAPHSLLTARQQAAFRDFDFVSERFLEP
T5 sequence (P08631 whole entry): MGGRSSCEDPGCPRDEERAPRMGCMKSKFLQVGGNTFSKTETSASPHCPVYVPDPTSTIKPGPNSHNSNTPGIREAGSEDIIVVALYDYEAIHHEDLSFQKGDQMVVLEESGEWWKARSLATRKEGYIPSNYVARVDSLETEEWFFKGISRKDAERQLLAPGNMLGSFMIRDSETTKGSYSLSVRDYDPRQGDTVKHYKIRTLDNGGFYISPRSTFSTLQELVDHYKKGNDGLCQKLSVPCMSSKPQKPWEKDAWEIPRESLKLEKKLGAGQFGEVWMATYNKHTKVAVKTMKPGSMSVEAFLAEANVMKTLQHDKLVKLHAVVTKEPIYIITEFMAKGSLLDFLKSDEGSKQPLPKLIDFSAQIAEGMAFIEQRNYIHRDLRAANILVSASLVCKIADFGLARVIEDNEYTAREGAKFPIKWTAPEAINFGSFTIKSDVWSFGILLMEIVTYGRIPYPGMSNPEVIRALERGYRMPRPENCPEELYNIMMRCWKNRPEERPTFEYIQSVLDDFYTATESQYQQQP
T6 sequence (O75914 whole entry): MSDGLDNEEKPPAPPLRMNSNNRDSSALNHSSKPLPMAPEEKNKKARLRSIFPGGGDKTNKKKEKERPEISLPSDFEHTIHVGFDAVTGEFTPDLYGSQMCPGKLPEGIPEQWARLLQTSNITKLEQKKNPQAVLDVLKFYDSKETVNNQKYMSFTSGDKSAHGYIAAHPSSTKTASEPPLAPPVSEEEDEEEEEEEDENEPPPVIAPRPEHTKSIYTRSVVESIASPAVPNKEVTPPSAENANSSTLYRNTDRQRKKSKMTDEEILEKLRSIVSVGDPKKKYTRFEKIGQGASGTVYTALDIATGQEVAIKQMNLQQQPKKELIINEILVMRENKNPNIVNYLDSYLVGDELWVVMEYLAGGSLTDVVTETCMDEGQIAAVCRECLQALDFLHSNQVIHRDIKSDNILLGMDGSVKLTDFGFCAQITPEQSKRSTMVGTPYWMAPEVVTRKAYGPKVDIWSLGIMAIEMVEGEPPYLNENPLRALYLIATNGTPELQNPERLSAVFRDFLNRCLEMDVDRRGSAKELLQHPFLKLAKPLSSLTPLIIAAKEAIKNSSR
T7 sequence (P06239 whole entry): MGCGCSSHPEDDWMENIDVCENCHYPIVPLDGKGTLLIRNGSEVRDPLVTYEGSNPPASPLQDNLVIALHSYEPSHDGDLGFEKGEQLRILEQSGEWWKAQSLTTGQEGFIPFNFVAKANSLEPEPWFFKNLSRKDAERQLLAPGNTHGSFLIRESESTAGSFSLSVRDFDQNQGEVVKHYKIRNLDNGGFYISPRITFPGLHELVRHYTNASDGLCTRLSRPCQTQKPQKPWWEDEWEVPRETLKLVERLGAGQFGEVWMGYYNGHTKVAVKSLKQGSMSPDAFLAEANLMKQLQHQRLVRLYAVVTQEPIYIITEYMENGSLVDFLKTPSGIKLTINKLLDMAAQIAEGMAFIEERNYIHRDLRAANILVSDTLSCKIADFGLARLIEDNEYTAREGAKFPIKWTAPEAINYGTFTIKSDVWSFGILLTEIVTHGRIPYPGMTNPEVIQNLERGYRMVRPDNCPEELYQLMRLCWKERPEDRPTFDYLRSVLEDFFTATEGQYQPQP
T4 sequence (Q02750 whole entry): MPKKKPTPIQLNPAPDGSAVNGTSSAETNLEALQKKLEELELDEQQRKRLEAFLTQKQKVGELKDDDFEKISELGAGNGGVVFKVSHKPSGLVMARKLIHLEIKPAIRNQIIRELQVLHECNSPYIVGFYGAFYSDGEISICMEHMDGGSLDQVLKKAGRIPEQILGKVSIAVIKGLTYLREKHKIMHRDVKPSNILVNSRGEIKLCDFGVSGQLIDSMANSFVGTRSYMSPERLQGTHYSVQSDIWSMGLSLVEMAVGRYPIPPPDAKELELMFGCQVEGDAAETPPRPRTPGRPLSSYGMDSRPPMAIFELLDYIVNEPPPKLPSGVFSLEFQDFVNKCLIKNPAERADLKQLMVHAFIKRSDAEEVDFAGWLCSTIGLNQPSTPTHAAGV

CC(C)c1cc(-c2n[nH]c(=O)n2-c2ccc3c(ccn3C)c2)c(O)cc1O [Ganetespib (STA9090)]
remaining activity at 10 µM (382 unique human kinases [1]): 88.4% | remaining activity at 10 µM (382 unique human kinases [2]): 75% | remaining activity at 10 µM (382 unique human kinases [3]): 83.9% | remaining activity at 10 µM (382 unique human kinases [4]): 90.3%

CC(C)c1cc(-c2n[nH]c(=O)n2-c2ccc3c(ccn3C)c2)c(O)cc1O [Ganetespib]
remaining activity at 1 µM (382 unique human kinases [5]; [10]): 77.7% | remaining activity at 10 µM (382 unique human kinases [5]; [11]): 14.5% | remaining activity at 10 µM (382 unique human kinases [6]): 98.1% | remaining activity at 1 µM (382 unique human kinases [7]; [10]): 49.3% | remaining activity at 10 µM (382 unique human kinases [7]; [11]): 13.9% | remaining activity at 10 µM (382 unique human kinases [8]): 92.1% | remaining activity at 10 µM (382 unique human kinases [9]): 101%

CCNC(=O)c1noc(-c2cc(C(C)C)c(O)cc2O)c1-c1ccc(CN2CCOCC2)cc1 [Luminespib (AUY-922)]
% Enzyme Activity (relative to DMSO controls) (382 unique human kinases [1]): 63.89% | remaining activity at 10 µM (382 unique human kinases [1]): 68.9% | % Enzyme Activity (relative to DMSO controls) (382 unique human kinases [2]): 100.41% | remaining activity at 10 µM (382 unique human kinases [2]): 102% | % Enzyme Activity (relative to DMSO controls) (382 unique human kinases [3]): 102.60% | remaining activity at 10 µM (382 unique human kinases [3]): 104% | % Enzyme Activity (relative to DMSO controls) (382 unique human kinases [4]): 95.75% | remaining activity at 10 µM (382 unique human kinases [4]): 95.8%

CCNC(=O)c1noc(-c2cc(C(C)C)c(O)cc2O)c1-c1ccc(CN2CCOCC2)cc1 [Luminespib]
% Enzyme Activity (relative to DMSO controls) (382 unique human kinases [5]; compound 10 uM): 95.21% | remaining activity at 10 µM (382 unique human kinases [5]; [11]): 97.2% | % Enzyme Activity (relative to DMSO controls) (382 unique human kinases [6]): 107.82% | remaining activity at 10 µM (382 unique human kinases [6]): 108% | % Enzyme Activity (relative to DMSO controls) (382 unique human kinases [7]; compound 10 uM): 58.73% | remaining activity at 10 µM (382 unique human kinases [7]; [11]): 61% | % Enzyme Activity (relative to DMSO controls) (382 unique human kinases [8]): 102.58% | remaining activity at 10 µM (382 unique human kinases [8]): 103% | % Enzyme Activity (relative to DMSO controls) (382 unique human kinases [9]): 105.88% | remaining activity at 10 µM (382 unique human kinases [9]): 106%
